# Assay results reported in US12018014B2, “Pyrrole-substituted indolone derivative or pharmaceutically acceptable salts thereof, and preparation method therefor and application thereof” (SUZHOU GENHOUSE PHARMACEUTICAL CO., LTD., priority 2018, dated 2024).
# Marks after values point to notes of the source that are not given here.
# Assays:
# [1] = test system: human MV-4-11 cell strain; test: MTS in vitro antiproliferative activity; type: cell-based; settings: MV4-11, 72 hours, read-out: IC50, in vitro proliferation of human MV-4-11 cell strain
# Method: The human acute leukemia cell MV-4-11 is an Flt-3 mutant cell strain. The MTS method was used to determine the in vitro antiproliferative activity of the compound against MV-4-11 (derived from ATCC): trypsinizing the cells in the logarithmic growth phase, counting them, resuspending an appropriate number of the cells in the culture solution, adding the culture solution to the 96-well plate by 150 μL per well, and culturing it overnight. After that, 50 μL of 4-fold serially diluted test compound or control culture solution was added to each well, and cultured for 72 hours. The culture solution was drained, and 120 μL of MTS detection solution (100 μL of fresh culture medium and 20 μL of MTS solution) was added to each well, and incubated at 37° C., and the OD490 value was read. Graphpad Prism5 software was used to analyze and process the data to obtain IC50.
# [2] = test system: MV-4-11 (FLT3-ITD) xenograft tumor; settings: oral 20 mg/kg/d; cited from earlier work
# [3] = test system: relapsed or refractory AML; settings: cited from earlier work
# [4] = test system: MV-4-11 transplanted tumor; test: MV-4-11 subcutaneously transplanted tumor in nude mice; type: in vivo, Balb/c nude mice; settings: for Average volume of tumor d15: d15 (start of administration); for Average volume of tumor d15 / Average volume of tumor d36: mean ± S.E, n=6; for Average volume of tumor d36 / anti-tumor effect (in words): 21 days
# From the text: The formula of calculating the tumor volume (TV) is TV=½×a×b^2, where a represents the long diameter of the tumor and b represents the short diameter of the tumor.
# [5] = Toxicity and animal's weight in MV-4-11 nude mouse study; settings: 80 mg/kg intragastric, 21 days
# Method: MV-4-11 cells (FLT3-ITD mutant human acute biphenotypic myeloid leukemia cell strain, ATCC) were cultured and expanded in vitro, and the cells in the logarithmic growth phase were collected and resuspended in a serum-free EMEM culture solution, and the cell suspension was injected subcutaneously with a syringe into the armpit of the front right limb of male Balb/c nude mice.
# [6] = test system: FLT3 phosphorylation; settings: dose of no less than 200 mg; cited from earlier work
# [7] = 29 AML patients, single dose 50 mg to 350 mg; cited from earlier work
# [8] = target: FLT3 D835Y (Homo sapiens (Human), UniProt P36888, D835Y); test: HTRF in vitro tyrosine kinase inhibition; type: biochemical; settings: ATP 120 μM, read-out: IC50 against FLT3 D835Y
# Method: (§1) The in vitro inhibitory activity of the compounds on tyrosine kinase was measured by HTRF (Homogeneous Time-Resolved Fluorescence) method.
# (§2) The compounds were serially diluted with DMSO in a 96-well plate into 8 solutions of different concentrations with 100 times the final concentration. Then a buffer solution, which was prepared by adding 5 mM MgCl2 and 1 mM DTT to 1-fold Enzymetic buffer provided by the kit, was diluted in a 96-well plate into a solution with 5 times the final concentration.
# (§3) The diluted compounds were added to a 384-well plate, respectively, and double wells were provided for each concentration. Then 0.25 ng of kinase was added per well. At the same time, negative and positive wells were provided, and the well to which 5% DMSO of the same volume was added was taken as control. […] Preincubation was carried out for 10 minutes at room temperature. A substrate with a final concentration of 1 μM and ATP with a final concentration of 120 μM were added, and incubated at room temperature for 90 minutes. Then, a fluorescent acceptor (XL665 labeled streptavidin) with a final concentration of 0.0625 μM and 1-fold fluorescent donor (Europium cryptate labeled TK antibody) with a final concentration of 0.0625 μM were added, and incubated at room temperature for 60 minutes. The plates were read by a microplate reader under the conditions of λex=330 nm, λem=620 nm and λem=665 nm. A ratio between the reading at 665 nm and the reading at 620 nm was calculated, and the inhibition rate was calculated according to this ratio.
# [9] = target: c-Kit (Homo sapiens (Human), UniProt P10721); test: HTRF in vitro tyrosine kinase inhibition; type: biochemical; settings: ATP 120 μM, read-out: IC50 against c-Kit
# Method: as §1, §2, §3
# [10] = target: ALK (Homo sapiens (Human), UniProt Q9UM73); test: HTRF in vitro tyrosine kinase inhibition; type: biochemical; settings: ATP 120 μM, read-out: IC50 against ALK
# ALK, sequence (Q9UM73 19-1620, species assumed): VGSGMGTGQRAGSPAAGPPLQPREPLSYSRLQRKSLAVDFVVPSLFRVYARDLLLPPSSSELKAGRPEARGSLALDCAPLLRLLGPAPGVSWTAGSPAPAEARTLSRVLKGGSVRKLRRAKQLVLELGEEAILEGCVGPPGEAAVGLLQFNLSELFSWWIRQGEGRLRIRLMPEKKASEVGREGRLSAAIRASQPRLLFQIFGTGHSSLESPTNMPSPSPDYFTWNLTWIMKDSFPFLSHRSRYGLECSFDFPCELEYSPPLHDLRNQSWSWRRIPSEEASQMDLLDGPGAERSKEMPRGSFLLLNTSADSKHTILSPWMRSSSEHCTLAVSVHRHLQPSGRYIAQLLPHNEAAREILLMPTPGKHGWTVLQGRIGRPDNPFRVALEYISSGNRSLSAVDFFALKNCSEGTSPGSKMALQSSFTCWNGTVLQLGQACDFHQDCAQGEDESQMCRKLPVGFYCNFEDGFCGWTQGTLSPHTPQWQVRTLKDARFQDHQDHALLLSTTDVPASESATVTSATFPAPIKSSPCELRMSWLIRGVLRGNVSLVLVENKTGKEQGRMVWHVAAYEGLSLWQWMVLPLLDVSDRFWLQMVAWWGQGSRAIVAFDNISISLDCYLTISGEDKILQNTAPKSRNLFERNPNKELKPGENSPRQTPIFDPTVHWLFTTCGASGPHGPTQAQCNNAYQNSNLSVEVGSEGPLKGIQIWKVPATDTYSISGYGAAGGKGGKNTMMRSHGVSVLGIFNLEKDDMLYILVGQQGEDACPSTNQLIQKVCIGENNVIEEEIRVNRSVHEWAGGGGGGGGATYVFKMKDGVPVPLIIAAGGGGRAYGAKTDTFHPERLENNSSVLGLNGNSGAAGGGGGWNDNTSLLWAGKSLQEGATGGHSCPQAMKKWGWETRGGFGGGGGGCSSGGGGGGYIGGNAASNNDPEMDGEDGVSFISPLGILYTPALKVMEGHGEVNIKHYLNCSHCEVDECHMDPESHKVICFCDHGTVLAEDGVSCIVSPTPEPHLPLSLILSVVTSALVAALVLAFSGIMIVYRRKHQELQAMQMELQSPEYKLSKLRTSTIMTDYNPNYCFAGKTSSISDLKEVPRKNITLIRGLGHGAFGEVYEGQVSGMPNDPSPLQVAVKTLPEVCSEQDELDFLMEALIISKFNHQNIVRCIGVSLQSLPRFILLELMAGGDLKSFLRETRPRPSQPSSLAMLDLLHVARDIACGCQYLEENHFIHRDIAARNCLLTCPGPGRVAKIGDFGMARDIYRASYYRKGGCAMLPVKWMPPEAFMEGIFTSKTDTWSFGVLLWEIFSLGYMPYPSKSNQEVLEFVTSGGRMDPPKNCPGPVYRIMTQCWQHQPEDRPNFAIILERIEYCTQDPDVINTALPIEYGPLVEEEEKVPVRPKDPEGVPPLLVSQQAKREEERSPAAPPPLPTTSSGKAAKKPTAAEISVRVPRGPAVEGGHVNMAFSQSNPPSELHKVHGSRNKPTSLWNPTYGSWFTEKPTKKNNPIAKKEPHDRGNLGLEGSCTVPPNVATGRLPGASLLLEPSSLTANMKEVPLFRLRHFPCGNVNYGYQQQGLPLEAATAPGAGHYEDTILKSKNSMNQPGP
# Method: as §1, §2, §3
# [11] = target: RET (Homo sapiens (Human), UniProt P07949); test: HTRF in vitro tyrosine kinase inhibition; type: biochemical; settings: ATP 120 μM, read-out: IC50 against RET
# Method: as §1, §2, §3
# [12] = target: KDR (VEGFR2) (Homo sapiens (Human), UniProt P35968); test: HTRF in vitro tyrosine kinase inhibition; type: biochemical; settings: ATP 120 μM, read-out: IC50 against KDR
# KDR (VEGFR2), sequence (P35968 20-1356): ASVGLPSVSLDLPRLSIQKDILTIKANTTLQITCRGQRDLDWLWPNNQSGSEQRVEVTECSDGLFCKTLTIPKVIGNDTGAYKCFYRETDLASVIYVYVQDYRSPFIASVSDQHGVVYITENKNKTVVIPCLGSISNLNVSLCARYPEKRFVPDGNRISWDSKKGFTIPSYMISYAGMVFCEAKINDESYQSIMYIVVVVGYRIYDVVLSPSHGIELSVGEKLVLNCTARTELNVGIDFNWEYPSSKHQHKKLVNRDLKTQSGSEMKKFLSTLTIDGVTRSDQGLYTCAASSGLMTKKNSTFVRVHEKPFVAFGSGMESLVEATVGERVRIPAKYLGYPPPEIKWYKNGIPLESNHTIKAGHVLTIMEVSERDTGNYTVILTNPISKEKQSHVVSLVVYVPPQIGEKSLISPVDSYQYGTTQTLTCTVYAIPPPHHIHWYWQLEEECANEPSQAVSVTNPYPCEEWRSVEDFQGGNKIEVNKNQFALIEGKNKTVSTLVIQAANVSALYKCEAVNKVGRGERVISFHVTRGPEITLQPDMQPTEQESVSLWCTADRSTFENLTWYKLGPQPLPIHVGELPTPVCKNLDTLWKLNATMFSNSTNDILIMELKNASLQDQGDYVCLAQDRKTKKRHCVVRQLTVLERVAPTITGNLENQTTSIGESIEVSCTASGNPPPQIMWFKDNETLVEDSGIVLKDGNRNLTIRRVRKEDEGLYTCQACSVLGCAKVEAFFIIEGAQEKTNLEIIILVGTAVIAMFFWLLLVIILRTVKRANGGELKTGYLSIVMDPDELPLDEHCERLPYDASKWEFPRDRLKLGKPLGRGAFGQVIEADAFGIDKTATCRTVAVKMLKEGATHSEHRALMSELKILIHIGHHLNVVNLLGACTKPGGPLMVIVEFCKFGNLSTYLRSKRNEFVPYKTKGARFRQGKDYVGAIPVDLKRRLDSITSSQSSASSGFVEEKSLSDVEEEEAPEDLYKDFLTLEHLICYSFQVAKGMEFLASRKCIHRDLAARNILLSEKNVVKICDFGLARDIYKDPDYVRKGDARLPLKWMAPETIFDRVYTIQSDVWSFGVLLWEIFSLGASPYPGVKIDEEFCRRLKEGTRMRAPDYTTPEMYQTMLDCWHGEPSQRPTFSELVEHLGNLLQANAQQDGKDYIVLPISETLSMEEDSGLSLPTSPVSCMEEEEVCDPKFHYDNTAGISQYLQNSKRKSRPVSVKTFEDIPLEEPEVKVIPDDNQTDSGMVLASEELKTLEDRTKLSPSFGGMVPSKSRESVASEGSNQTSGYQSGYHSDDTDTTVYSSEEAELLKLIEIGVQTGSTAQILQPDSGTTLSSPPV
# Method: as §1, §2, §3
# [13] = target: PDGFRβ (Homo sapiens (Human), UniProt P09619); test: HTRF in vitro tyrosine kinase inhibition; type: biochemical; settings: ATP 120 μM, read-out: IC50 against PDGFRβ
# PDGFRβ, sequence (P09619 33-1106, species assumed): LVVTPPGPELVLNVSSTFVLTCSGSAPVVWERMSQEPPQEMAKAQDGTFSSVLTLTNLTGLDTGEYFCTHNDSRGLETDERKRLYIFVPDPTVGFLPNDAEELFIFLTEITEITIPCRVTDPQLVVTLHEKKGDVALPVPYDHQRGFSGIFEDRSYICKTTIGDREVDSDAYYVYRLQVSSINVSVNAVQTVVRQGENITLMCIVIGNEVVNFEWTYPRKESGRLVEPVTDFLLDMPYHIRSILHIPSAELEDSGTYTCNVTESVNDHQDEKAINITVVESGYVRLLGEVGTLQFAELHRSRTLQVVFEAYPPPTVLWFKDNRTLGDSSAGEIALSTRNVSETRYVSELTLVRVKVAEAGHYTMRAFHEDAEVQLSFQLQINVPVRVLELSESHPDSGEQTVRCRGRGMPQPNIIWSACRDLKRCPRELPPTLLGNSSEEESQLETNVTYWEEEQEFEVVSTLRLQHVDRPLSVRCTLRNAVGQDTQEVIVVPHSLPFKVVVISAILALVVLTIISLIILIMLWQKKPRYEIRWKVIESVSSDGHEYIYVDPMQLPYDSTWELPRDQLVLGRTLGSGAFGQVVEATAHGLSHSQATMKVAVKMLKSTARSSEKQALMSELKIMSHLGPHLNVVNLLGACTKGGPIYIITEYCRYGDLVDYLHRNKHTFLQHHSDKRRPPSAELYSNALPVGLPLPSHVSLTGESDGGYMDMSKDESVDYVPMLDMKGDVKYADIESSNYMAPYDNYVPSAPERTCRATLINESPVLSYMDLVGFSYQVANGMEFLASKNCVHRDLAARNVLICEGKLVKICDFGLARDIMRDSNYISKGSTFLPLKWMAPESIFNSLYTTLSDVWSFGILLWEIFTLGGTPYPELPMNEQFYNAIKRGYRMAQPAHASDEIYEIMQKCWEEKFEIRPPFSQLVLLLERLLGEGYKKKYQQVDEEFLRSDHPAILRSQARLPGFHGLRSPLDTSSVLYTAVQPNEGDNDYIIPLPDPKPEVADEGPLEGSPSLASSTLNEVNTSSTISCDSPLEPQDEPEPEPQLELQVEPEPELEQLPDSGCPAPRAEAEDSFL
# Method: as §1, §2, §3
# [14] = target: FLT3 (Homo sapiens (Human), UniProt P36888); test: HTRF in vitro tyrosine kinase inhibition; type: biochemical; settings: ATP 120 μM, read-out: IC50 against FLT3
# Method: as §1, §2, §3
# [15] = target: FLT3-ITD (Homo sapiens, UniProt P36888, ITD); test: HTRF in vitro tyrosine kinase inhibition; type: biochemical
# Method: as §1, §2, §3
# [16] = target: FGFR1 (Homo sapiens (Human), UniProt P11362); test: HTRF in vitro tyrosine kinase inhibition; type: biochemical; settings: ATP 120 μM, read-out: IC50 against FGFR1
# FGFR1, sequence (P11362 22-822, species assumed): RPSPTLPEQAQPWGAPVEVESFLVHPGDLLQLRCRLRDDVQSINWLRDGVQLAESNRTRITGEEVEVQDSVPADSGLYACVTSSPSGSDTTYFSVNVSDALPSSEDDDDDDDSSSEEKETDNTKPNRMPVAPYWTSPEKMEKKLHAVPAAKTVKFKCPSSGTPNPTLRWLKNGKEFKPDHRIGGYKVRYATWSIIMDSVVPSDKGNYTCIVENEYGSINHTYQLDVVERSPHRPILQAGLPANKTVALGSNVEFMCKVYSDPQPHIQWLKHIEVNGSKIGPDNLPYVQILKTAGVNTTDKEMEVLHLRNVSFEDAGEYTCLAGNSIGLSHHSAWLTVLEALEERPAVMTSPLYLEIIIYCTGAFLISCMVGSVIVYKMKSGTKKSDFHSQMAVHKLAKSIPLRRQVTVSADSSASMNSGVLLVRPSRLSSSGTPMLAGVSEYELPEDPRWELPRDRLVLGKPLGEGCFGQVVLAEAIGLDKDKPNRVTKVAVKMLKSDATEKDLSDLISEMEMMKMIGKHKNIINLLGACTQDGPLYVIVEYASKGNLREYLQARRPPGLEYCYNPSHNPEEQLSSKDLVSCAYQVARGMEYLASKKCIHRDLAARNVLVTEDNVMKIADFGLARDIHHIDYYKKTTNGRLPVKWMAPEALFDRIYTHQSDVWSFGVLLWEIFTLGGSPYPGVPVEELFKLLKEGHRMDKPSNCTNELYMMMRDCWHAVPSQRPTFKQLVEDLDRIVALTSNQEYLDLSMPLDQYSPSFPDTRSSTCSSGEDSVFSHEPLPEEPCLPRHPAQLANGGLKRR
# Method: as §1, §2, §3
# [17] = 10 mg/kg intragastric once a day
# [18] = 80 mg/kg intragastric once a day
structure (smiles),measurement,setting,value
CCN1CCN(C(=O)Nc2c(C)[nH]c(/C=C3\C(=O)Nc4ccc(F)cc43)c2C)CC1 [Compound 3],IC50,[1],138 nM
CCN(CC)CCNC(=O)c1c(C)[nH]c(/C=C2\C(=O)Nc3ccc(F)cc32)c1C [Sunitinib],tumor inhibitory effect (in words),[2],significant tumor inhibitory effect
same,toxic reaction (in words),[3]; 75 mg group,grade 4 dose-limiting fatigue and hypertension
same,morphological reaction,"[3]; 16 patients, 50 or 75 mg·d^−1",1 case
same,partial reaction (PR),"[3]; 16 patients, 50 or 75 mg·d^−1",5 cases
same,IC50,[1],74.3 nM
same,Average volume of tumor d15,[4]; 10 mg/kg group,167.64 ± 12.88 mm^3
same,Average volume of tumor d36,[4]; [17],178.93 ± 13.89** mm^3
same,Average volume of tumor d15,[4]; 80 mg/kg group,167.62 ± 13.27 mm^3
same,Average volume of tumor d36,[4]; [18],22.17 ± 1.95** mm^3
same,animal's weight (in words),[5],decreased significantly
same,patients with strong inhibitory effect on FLT3 phosphorylation,[6],more than 50%
same,patients with drug-related adverse reactions,[7],31%
CNC1CCN(C(=O)Nc2c(C)[nH]c(/C=C3\C(=O)Nc4ccc(F)cc43)c2C)CC1.Cl [Compound 5],IC50,[1],66 nM
same,Average volume of tumor d15,[4]; 2.5 mg/kg group,167.76 ± 11.65 mm^3
same,Average volume of tumor d36,"[4]; 2.5 mg/kg intragastric once a day, hydrochloride",359.18 ± 49.62** mm^3
same,anti-tumor effect (in words),[4]; 2.5 mg/kg intragastric,notable inhibition on the growth of the transplanted tumor
same,Average volume of tumor d15,[4]; 5 mg/kg group,167.69 ± 11.70 mm^3
same,Average volume of tumor d36,"[4]; 5 mg/kg intragastric once a day, hydrochloride",34.71 ± 4.32** mm^3
same,Average volume of tumor d15,[4]; 10 mg/kg group,167.75 ± 11.59 mm^3
same,Average volume of tumor d36,[4]; [17],28.41 ± 3.38** mm^3
same,Average volume of tumor d15,[4]; 80 mg/kg group,167.79 ± 13.04 mm^3
same,Average volume of tumor d36,[4]; [18],19.60 ± 4.21** mm^3
same,Average volume of tumor d15,[4]; 160 mg/kg group,167.59 ± 11.93 mm^3
same,Average volume of tumor d36,"[4]; 160 mg/kg intragastric once a day, hydrochloride",20.74 ± 1.38** mm^3
same,anti-tumor effect (in words),[4]; dose of no less than 5 mg/kg intragastric,the transplanted tumor subsided
same,IC50,[8],17.3 nM
same,IC50,[9],286 nM
same,IC50,[10],4900 nM
same,IC50,[11],110 nM
same,IC50,[12],891 nM
same,IC50,[13],190 nM
same,IC50,[14],8.8 nM
same,IC50,[15],< 1.5 nM
same,IC50,[16],2340 nM
Cc1[nH]c(/C=C2\C(=O)Nc3ccc(F)cc32)c(C)c1NC(=O)NC1CCN(C)CC1 [Compound 7],IC50,[1],82.2 nM
Cc1[nH]c(/C=C2\C(=O)Nc3ccc(F)cc32)c(C)c1NC(=O)N1CCN(C)CC1 [Compound 2],IC50,[1],178 nM
